Measured values published in ChEMBL document CHEMBL2073954, “Transport activity of human MRP3 expressed in Sf9 cells: comparative studies with rat MRP3” (Pharm Res, 2002).

Legend:
[1] = molecular target: Multidrug resistance associated protein (Homo sapiens, UniProt Q96QA9); assay: (§1) TP_TRANSPORTER: inhibition of E217betaG uptake in membrane vesicle from MRP3-expressing Sf9 cells; assay type: functional, cell membranes
[2] = molecular target: T1, ATP-binding cassette sub-family C member 3 (Rattus norvegicus, UniProt O88563); assay: TP_TRANSPORTER: inhibition of E217betaG uptake in membrane vesicles from Mrp3-expressing Sf9 cells; assay type: functional, cell membranes, Membrane vesicle
[3] = molecular target: T1, ATP-binding cassette sub-family C member 3; assay: (§2) TP_TRANSPORTER: uptake in membrane vesicles from Mrp3-expressing Sf9 cells; assay type: functional, cell membranes, Membrane vesicle
[4] = molecular target: T1, ATP-binding cassette sub-family C member 3; assay: as §1; assay type: functional, cell membranes
[5] = substrate: C[C@]12CC[C@@H]3c4ccc(O)cc4CC[C@H]3[C@@H]1CC[C@@H]2O[C@@H]1O[C@H](C(=O)O)[C@@H](O)[C@H](O)[C@H]1O; settings: Sf9; Membrane vesicle
Description: TP_TRANSPORTER: uptake in membrane vesicle from MRP3-expressing Sf9 cells

[6] = substrate: C[C@]12CC[C@@H]3c4ccc(O)cc4CC[C@H]3[C@@H]1CC[C@@H]2O[C@@H]1O[C@H](C(=O)O)[C@@H](O)[C@H](O)[C@H]1O; assay: as §2; assay type: functional, cell membranes, Membrane vesicle

Molecule | Ki [1] | Ki [2] | Activity [3] | other results
O=C(O)[C@H]1O[C@@H](OCc2cc(=O)oc3cc(O)ccc23)[C@H](O)[C@@H](O)[C@@H]1O | 105 µM | 77 µM | – | –
CCCCC/C=C\C\C=C/C=C/C=C/[C@@H](SC[C@@H](NC(=O)CC[C@H](N)C(=O)O)C(=O)NCC(=O)O)[C@@H](O)CCCC(=O)O [LEUKOTRIEN C4] | – | – | substrate [+] | –
CNc1nc2c(Cc3cccnc3)c(C)c(O[C@@H]3O[C@H](C(=O)O)[C@@H](O)[C@H](O)[C@H]3O)c(C)c2s1 [E3040 GLUCURONIDE] | 5.6 µM | – | substrate [+] | Ki [4]: 2.6 µM
CN(Cc1cnc2nc(N)nc(N)c2n1)c1ccc(C(=O)N[C@@H](CCC(=O)O)C(=O)O)cc1 [METHOTREXATE] | 1200 µM | 90 µM | – | –
N[C@@H](CCC(=O)N[C@H](CSc1ccc([N+](=O)[O-])cc1[N+](=O)[O-])C(=O)NCC(=O)O)C(=O)O | 337 µM | 83.8 µM | substrate [+] | –
Multidrug resistance associated protein (Homo sapiens), Q96QA9 (protein) MDALCGSGELGSKFWDSNLSVHTENPDLTPCFQNSLLAWVPCIYLWVALPCYLLYLRHHCRGYIILSHLSKLKMVLGVLLWCVSWADLFYSFHGLVHGRAPAPVFFVTPLVVGVTMLLATLLIQYERLQGVQSSGVLIIFWFLCVVCAIVPFRSKILLAKAEGEISDPFRFTTFYIHFALVLSALILACFREKPPFFSAKNVDPNPYPETSAGFLSRLFFWWFTKMAIYGYRHPLEEKDLWSLKEEDRSQMVVQQLLEAWRKQEKQTARHKASAAPGKNASGEDEVLLGARPRPRKPSFLKALLATFGSSFLISACFKLIQDLLSFINPQLLSILIRFISNPMAPSWWGFLVAGLMFLCSMMQSLILQHYYHYIFVTGVKFRTGIMGVIYRKALVITNSVKRASTVGEIVNLMSVDAQRFMDLAPFLNLLWSAPLQIILAIYFLWQNLGPSVLAGVAFMVLLIPLNGAVAVKMRAFQVKQMKLKDSRIKLMSEILNGIKVLKLYAWEPSFLKQVEGIRQGELQLLRTAAYLHTTTTFTWMCSPFLVTLITLWVYVYVDPNNVLDAEKAFVSVSLFNILRLPLNMLPQLISNLTQASVSLKRIQQFLSQEELDPQSVERKTISPGYAITIHSGTFTWAQDLPPTLHSLDIQVPKGALVAVVGPVGCGKSSLVSALLGEMEKLEGKVHMKGSVAYVPQQAWIQNCTLQENVLFGKALNPKRYQQTLEACALLADLEMLPGGDQTEIGEKGINLSGGQRQRVSLARAVYSDADIFLLDDPLSAVDSHVAKHIFDHVIGPEGVLAGKTRVLVTHGISFLPQTDFIIVLADGQVSEMGPYPALLQRNGSFANFLCNYAPDEDQGHLEDSWTALEGAEDKEALLIEDTLSNHTDLTDNDPVTYVVQKQFMRQLSALSSDGEGQGRPVPRRHLGPSEKVQVTEAKADGALTQEEKAAIGTVELSVFWDYAKAVGLCTTLAICLLYVGQSAAAIGANVWLSAWTNDAMADSRQNNTSLRLGVYAALGILQGFLVMLAAMAMAAGGIQAARVLHQALLHNKIRSPQSFFDTTPSGRILNCFSKDIYVVDEVLAPVILMLLNSFFNAISTLVVIMASTPLFTVVILPLAVLYTLVQRFYAATSRQLKRLESVSRSPIYSHFSETVTGASVIRAYNRSRDFEIISDTKVDANQRSCYPYIISNRWLSIGVEFVGNCVVLFAALFAVIGRSSLNPGLVGLSVSYSLQVTFALNWMIRMMSDLESNIVAVERVKEYSKTETEAPWVVEGSRPPEGWPPRGEVEFRNYSVRYRPGLDLVLRDLSLHVHGGEKVGIVGRTGAGKSSMTLCLFRILEAAKGEIRIDGLNVADIGDPILFSGTLRMNLDPFGSYSEEDIWWALELSHLHTFVSSQPAGLDFQCSEGGENLSVGQRQLVCLARALLRKSRILVLDEATAAIDLETDNLIQATIRTQFDTCTVLTIAHRLNTIMDYTRVLVLDKGVVAEFDSPANLIAARGIFYGMARDAGLA | – | – | – | Km [5]: 42.9 µM
ATP-binding cassette sub-family C member 3 (Rattus norvegicus) (protein) MDRLCGSGELGSKFWDSNLTVYTNTPDLTPCFQNSLLAWVPCIYLWAALPCYLFYLRHHRLGYIVLSCLSRLKTALGVLLWCISWVDLFYSFHGLVHGSSPAPVFFITPLLVGITMLLATLLIQYERLRGVRSSGVLIIFWLLCVICAIIPFRSKILLALAEGKILDPFRFTTFYIYFALVLCAFILSCFQEKPPLFSPENLDTNPCPEASAGFFSRLSFWWFTKLAILGYRRPLEDSDLWSLSEEDCSHKVVQRLLEAWQKQQTQASGPQTAALEPKIAGEDEVLLKARPKTKKPSFLRALVRTFTSSLLMGACFKLIQDLSPSSTHSCSASSSGLFRPHGPYWWGFLLAGLMFVSSTMQTLILHQHYHCIFVMALRIRTAIIGVIYRKALTITNSVKREYTVGEMVNLMSVDAQRFMDVSPFINLLWSAPLQVILAIYFLWQILGPSALAGVAVIVLLIPLNGAVSMKMKTYQVQQMKFKDSRIKLMSEILNGIKVLKLYAWEPTFLEQVEGIRQGELQLLRKGAYLQAISTFIWVCTPFMVTLITLGVYVCVDKNNVLDAEKAFVSLSLFNILKIPLNLLPQLISGMTQTSVSLKRIQDFLNQDELDPQCVERKTISPGRAITIHNGTFSWSKDLPPTLHSINIQIPKGALVAVVGPVGCGKSSLVSALLGEMEKLEGAVSVKGSVAYVPQQAWIQNCTLQENVLFGQPMNPKRYQQALETCALLADLDVLPGGDQTEIGEKGINLSGGQRQRVSLARAVYSDANIFLLDDPLSAVDSHVAKHIFDQVIGPEGVLAGKTRVLVTHGISFLPQTDFIIVLADGQITEMGHYSELLQHDGSFANFLRNYAPDENQEANEGVLQHANEEVLLLEDTLSTHTDLTDTEPAIYEVRKQFMREMSSLSSEGEGQNRPVLKRYTSSLEKEVPATQTKETGALIKEEIAETGNVKLSVYWDYAKSVGLCTTLFICLLYAGQNAVAIGANVWLSAWTNDVEEHGQQNNTSVRLGVYATLGILQGLLVMLSAFTMVVGAIQAARLLHTALLHNQIRAPQSFFDTTPSGRILNRFSKDIYVIHEVLAPTILMLFNSFYTSISTIVVIVASTPLFCVVVLPLAVFYGFVQRFYVATSRQLKRLESVSRSPIFSHFSETVTGTSVIRAYGRVQDFKVLSDAKVDSNQKTTYPYIASNRWLGVHVEFVGNCVVLFSALFAVIGRNSLNPGLVGLSVSYALQVTLSLNWMIRTLSDLESNIIAVERVKEYSKTETEAPWVLESNRAPEGWPRSGVVEFRNYSVRYRPGLELVLKNLTLHVQGGEKVGIVGRTGAGKSSMTLCLFRILEAAEGEIFIDGLNVAHIGLHDLRSQLTIIPQDPILFSGTLRMNLDPFGRYSDEDIWRTLELSHLSAFVSSQPTGLDFQCSEGGDNLSVGQRQLVCLARALLRKSRVLVLDEATAAIDLETDDLIQGTIRTQFEDCTVLTIAHRLNTIMDYNRVLVLDKGVVAEFDSPVNLIAAGGIFYGMAKDAGLA | – | – | – | Km [6]: 33.4 µM
